Data as given in patent US11415579B2, “Assay for measuring a rate of reaction between a target and a ligand candidate” (Imperial College Innovations Ltd., priority 2016, dated 2022).

Legend:
[1] = target: T1, Cdk2(H71C) (C177A) (Homo sapiens, UniProt P24941, C177A/H71C); assay: Kinetic thiol consumption assay with Cdk2 mutant H71C; assay type: binding; set-up: key to Rate enhancement, Cdk2 H71C: rate constant with Cdk2 ÷ rate constant with model thiol (fold); conditions: additional mutation C177A; for Rate constant with Cdk2 H71C: Protein: Cdk2, cysteine position H71C, in h^-1
T1 construct: poly-histidine; made in house; host or cells: E. coli
Outline: (§1)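 Thiol consumption was monitored kinetically using 5 μM Cdk2 (C177A plus one introduced cysteine) in degassed phosphate buffer at pH 8 with TCEP beads. Plates were kept 1 h at room temperature before fluorescence reading, and rate constants came from exponential decay fitting.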

[2] = target: T2, Cdk2(T182C) (C177A) (Homo sapiens, UniProt P24941, C177A/T182C); assay: Kinetic thiol consumption assay with Cdk2 mutant T182C; assay type: binding; set-up: key to Rate enhancement, Cdk2 T182C: rate constant with Cdk2 ÷ rate constant with model thiol (fold); conditions: additional mutation C177A; for Rate constant with Cdk2 T182C: Protein: Cdk2, cysteine position T182C, in h^-1
T2 construct: poly-histidine; made in house; host or cells: E. coli
Outline: as §1

[3] = target: T3, Cdk2[C177A, F80C, K278C] (Homo sapiens, UniProt P24941, C177A/F80C/K278C); assay: Kinetic thiol consumption assay with mutant Cdk2 as model thiol; assay type: binding; set-up: unit not given here; conditions: 500 μM ligand, 5 μM thiol, phosphate buffer pH 8
T3 construct: poly-histidine; made in house; host or cells: E. coli
Outline: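 First-order rate constants were derived by exponential-decay fitting of DMSO/thiol-normalized fluorescence (380/470 nm) over time at room temperature. Thiol was 5 μM E. coli-expressed His-tagged Cdk2 mutant C177A/F80C/K278C in degassed pH 8 phosphate buffer containing 2% v/v TCEP beads.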

[4] = target: T4, Cdk2(N272C) (C177A) (Homo sapiens, UniProt P24941, C177A/N272C); assay: Kinetic thiol consumption assay with Cdk2 mutant N272C; assay type: binding; set-up: key to Rate enhancement, Cdk2 N272: rate constant with Cdk2 ÷ rate constant with model thiol (fold); conditions: for Rate enhancement, Cdk2 N272: Cdk2 N272, additional mutation C177A; for Rate constant with Cdk2 N272C: Protein: Cdk2, cysteine position N272C, additional mutation C177A, in h^-1
T4 construct: poly-histidine; made in house; host or cells: E. coli
Outline: as §1

[5] = target: T5, Cdk2(C177A, F80C) (Homo sapiens, UniProt P24941, C177A/F80C); assay: Kinetic thiol consumption assay with Cdk2 mutant F80C, incl. kobs versus concentration (Kd, k2); assay type: binding; set-up: key to Rate enhancement, Cdk2 F80C: Cdk2 rate constant divided by model-thiol rate constant; conditions: additional mutation C177A; for Rate constant with Cdk2 F80C: Protein: Cdk2, cysteine position F80C, in h^-1
T5 construct: poly-histidine; made in house; host or cells: E. coli
Outline: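 His-tagged Cdk2(C177A/F80C) from E. coli or model thiol, 5 μM in degassed phosphate buffer pH 8 with TCEP beads, reacted with acrylamide ligands; fluorescence (ex/em 380/470 nm) normalized to DMSO control and fitted to first-order decay for kobs. Kd and k2 obtained from hyperbolic fit of kobs versus ligand concentration.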

[6] = Kinetic thiol consumption assay with model thiol glutathione; assay type: physicochemical; set-up: Rate constant with glutathione (k(GSH)): unit not given here; conditions: for Rate constant with glutathione (k(GSH)): 500 μM ligand, 5 μM thiol, phosphate buffer pH 8; for Rate constant with Glutathione: Protein: Glutathione, cysteine position NA, in h-1
Outline: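 GSH 5 μM, degassed phosphate buffer pH 8, TCEP beads 2% v/v; acrylamide added; RT, 1 h; fluorescence ex/em 380/470 nm; normalized to DMSO/thiol control; k from first-order exponential decay fit.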

[7] = target: T6, Cdk2(S276C) (C177A) (Homo sapiens, UniProt P24941, C177A/S276C); assay: Kinetic thiol consumption assay with Cdk2 mutant S276C; assay type: binding; set-up: key to Rate enhancement, Cdk2 S276C: rate constant with Cdk2 ÷ rate constant with model thiol (fold); conditions: additional mutation C177A; for Rate constant with Cdk2 S276C: Protein: Cdk2, cysteine position S276C, in h^-1
T6 construct: poly-histidine; made in house; host or cells: E. coli
Outline: as §1

[8] = target: T7, human cyclin-dependent kinase 2 (Cdk2) (Homo sapiens, UniProt P24941); assay: Kinetic thiol consumption assay with wild type Cdk2 (C177); assay type: binding; set-up: key to Rate enhancement, Cdk2 WT: k(Cdk2) divided by k(model thiol); Rate constant with Cdk2 (k(Cdk2)): unit not given here; conditions: for Rate constant with Cdk2 (k(Cdk2)): 500 μM ligand, 5 μM thiol, phosphate buffer pH 8; for Rate enhancement, Cdk2 WT: no additional mutations; for Rate constant with Cdk2 WT: Protein: Cdk2, cysteine position WT, in h^-1; for k(Cdk2)/k(Cdk2_mut) rate enhancement: model thiol Cdk2[C177A, F80C, K278C]; for k(Cdk2)/k(GSH) rate enhancement: model thiol glutathione
T7 construct: poly-histidine; made in house; host or cells: E. coli
Outline: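 Rate enhancement: first-order decay constant with Cdk2 over that with a model thiol. Thiols (5 μM, degassed phosphate buffer pH 8, immobilized TCEP) were incubated with acrylamides at room temperature, and thiol consumption followed by fluorescence at 380/470 nm, normalized to DMSO control. Cdk2 was His-tagged, E. coli-expressed, with one surface cysteine (C177).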

[9] = target: T8, Cdk2(S181C) (C177A) (Homo sapiens, UniProt P24941, C177A/S181C); assay: Kinetic thiol consumption assay with Cdk2 mutant S181C; assay type: binding; set-up: key to Rate enhancement, Cdk2 S181C: rate constant with Cdk2 ÷ rate constant with model thiol (fold); conditions: additional mutation C177A; for Rate constant with Cdk2 S181C: Protein: Cdk2, cysteine position S181C, in h^-1
T8 construct: poly-histidine; made in house; host or cells: E. coli
Outline: as §1

[10] = target: T9, Cdk2(R122C) (C177A) (Homo sapiens, UniProt P24941, C177A/R122C); assay: Kinetic thiol consumption assay with Cdk2 mutant R122C; assay type: binding; set-up: key to Rate enhancement, Cdk2 R122C: rate constant with Cdk2 ÷ rate constant with model thiol (fold); conditions: additional mutation C177A; for Rate constant with Cdk2 R122C: Protein: Cdk2, cysteine position R122C, in h-1
T9 construct: poly-histidine; made in house; host or cells: E. coli
Outline: as §1

| SMILES | Rate enhancement, Cdk2 H71C [1] | Rate constant with Cdk2 H71C [1] | Rate enhancement, Cdk2 T182C [2] | Rate constant with Cdk2 T182C [2] | Rate constant with Cdk2[C177A, F80C, K278C] (k(Cdk2_mut)) [3] | Rate enhancement, Cdk2 N272 [4] | Rate constant with Cdk2 N272C [4] | Rate enhancement, Cdk2 F80C [5] | Rate constant with Cdk2 F80C [5] | Rate enhancement, Cdk2 S276C [7] | Rate constant with Cdk2 (k(Cdk2)) [8] | Rate enhancement, Cdk2 WT [8] | Rate constant with Cdk2 WT [8] | k(Cdk2)/k(Cdk2_mut) rate enhancement [8] | k(Cdk2)/k(GSH) rate enhancement [8] | Rate enhancement, Cdk2 S181C [9] | Rate constant with Cdk2 S181C [9] | Rate enhancement, Cdk2 R122C [10] | Rate constant with glutathione (k(GSH)) [6] | Rate constant with Glutathione [6] | further results |
| --- | --- | --- | --- | --- | --- | --- | --- | --- | --- | --- | --- | --- | --- | --- | --- | --- | --- | --- | --- | --- | --- |
| C=CC(=O)NCc1ccc(-c2ccccc2)cc1 [EL-1050] | 0 |  | 0.5328 | 0.001525 | 0.00126 | 0.1784 | 0.0005105 | 0 |  | 0 | 0.00166 | 0.579 | 0.001657 | 1.317 | 0.813 | 0.5143 | 0.001472 | 0 | 0.00204 | 0.002862 |  |
| C=CC(=O)N1CCC2CCC(C1)N2C (stereo not shown) [CA-143] | 0.08025 | 0.002353 | 2.359 | 0.06917 | 0.00505 | 0.4942 | 0.01449 | 0.1014 | 0.002972 | 0.6344 | 0.01115 | 0.3803 | 0.01115 | 2.207 | 0.3805 | 0.9178 | 0.02691 | 0.2049 | 0.0293 | 0.02932 | Rate constant with Cdk2 S276C [7]: 0.0186; Rate constant with Cdk2 R122C [10]: 0.006009 |
| C=CC(=O)NCc1ccc(OC)cc1 [BN-63] | 3.1842E−11 | 6.534E−14 | 0.7193 | 0.001476 | 0.0033 | 0.5 | 0.001026 | 0.5692 | 0.001168 | 0.393 | 0.00194 | 1.461 | 0.002998 | 0.5882 | 0.9011 | 0.4386 | 0.0009 | 0 | 0.00215 | 0.002052 | Rate constant with Cdk2 S276C [7]: 0.0008064 |
| C=CC(=O)NCCN1CCOCC1 [BN-346] | 0.09555 | 0.0004445 | 0.1853 | 0.000862 | 0.00146 | 0.4286 | 0.001994 | 0.189 | 0.0008792 | 0.2004 | 0.00428 | 1.185 | 0.005514 | 2.921 | 1.429 | 0.233 | 0.001084 | 0 | 0.00299 | 0.004652 | Rate constant with Cdk2 S276C [7]: 0.0009323 |

Second part, led by results:

| Rate enhancement, Cdk2 H71C [1] | Rate constant with Cdk2 H71C [1] | Rate enhancement, Cdk2 T182C [2] | Rate constant with Cdk2 T182C [2] | Rate constant with Cdk2[C177A, F80C, K278C] (k(Cdk2_mut)) [3] | Rate enhancement, Cdk2 N272 [4] | Rate constant with Cdk2 N272C [4] | Rate enhancement, Cdk2 F80C [5] | Rate constant with Cdk2 F80C [5] | Rate enhancement, Cdk2 S276C [7] | Rate constant with Cdk2 (k(Cdk2)) [8] | Rate enhancement, Cdk2 WT [8] | Rate constant with Cdk2 WT [8] | k(Cdk2)/k(Cdk2_mut) rate enhancement [8] | k(Cdk2)/k(GSH) rate enhancement [8] | Rate enhancement, Cdk2 S181C [9] | Rate constant with Cdk2 S181C [9] | Rate enhancement, Cdk2 R122C [10] | SMILES | Rate constant with glutathione (k(GSH)) [6] | Rate constant with Glutathione [6] | further results |
| --- | --- | --- | --- | --- | --- | --- | --- | --- | --- | --- | --- | --- | --- | --- | --- | --- | --- | --- | --- | --- | --- |
| 0.4653 | 0.00523 | 2.129 | 0.02393 | 0.00382 | 1.099 | 0.01235 | 0.3142 | 0.003532 | 1.346 | 0.00466 | 0.4144 | 0.004658 | 1.221 | 0.5575 | 0.5376 | 0.006043 | 0.5734 | C=CC(=O)N1CCN(c2ccccc2C(N)=O)CC1 [EL-1155] | 0.00836 | 0.01124 | Rate constant with Cdk2 S276C [7]: 0.01513; Rate constant with Cdk2 R122C [10]: 0.006445 |
| 0.1567 | 0.003628 | 2.016 | 0.04668 | 0.00264 | 0.2702 | 0.006256 | 0.289 | 0.00669 | 0.3514 | 0.01101 | 0.4756 | 0.01101 | 4.177 | 1.091 | 0.343 | 0.00794 | 0.1363 | C=CC(=O)N(c1ccc2c(c1)OCCO2)C1CC1 [CA-167] | 0.01009 | 0.02315 | Rate constant with Cdk2 S276C [7]: 0.008135; Rate constant with Cdk2 R122C [10]: 0.003155 |
| 0.8653 | 0.01034 | 1.7 | 0.02031 | 0.00766 | 1.056 | 0.01262 | 1.645 | 0.01966 | 1.074 | 0.00589 | 0.4929 | 0.00589 | 0.7691 | 0.489 | 1.469 | 0.01756 | 0.5786 | C=CC(=O)N1CCCC1c1cnc2ccccc2c1 (stereo not shown) [EL-1064] | 0.01205 | 0.01195 | Rate constant with Cdk2 S276C [7]: 0.01284; Rate constant with Cdk2 R122C [10]: 0.006914 |
